Where two headings read alike, the source gives them in different places.

The source of these data is publication PMC12730060, “Design, Synthesis, and Antimalarial Evaluation of New Spiroacridine Derivatives” (Antibiotics, 2025).

One data set deals with P. falciparum 3D7-GFP. The data set is described as follows: Screening at fixed concentration against unsynchronized asexual blood stages, flow cytometry (GFP). The format is cell-based. The conditions noted are these: Plasmodium falciparum, read-out: Inhibition (%) 10 μΜ. How it is done: In order to assess the antiplasmodial activity of the compounds, a screening with fixed concentrations at 10 μM was performed against unsynchronized cultures of the asexual blood stages of P. falciparum 3D7HT-GFP (hereafter referred to as 3D7-GFP). […] The JR intermediates were also evaluated in this assay in order to assess the relevance of the spiroacridine scaffold.
(§1) Firstly, to prepare the samples for in vitro assays, each compound was dissolved in DMSO (Sigma-Aldrich®, Merck, Darmstadt, Germany), obtaining a solution of 5 mM, from which two other solutions, at 100 μM and 10 μΜ were prepared through dilution with RPMI-1640 medium (Invitrogen™, Carlsbad, CA, USA), supplemented with AlbuMAXII (Invitrogen™, Carlsbad, CA, USA). In parallel, the parasite cultures used in the in vitro assays include the following P. falciparum strains: 3D7-GFP (MRA-1029, MR4, ATCC®, Manassas, VA, USA, chloroquine-sensitive, expressing Green Fluorescent Protein), Dd2 (MRA-150, ATCC®, Manassas, Virgínia, chloroquine-resistant), and IPC5202 (MRA-1240, ATCC®, Manassas, VA, USA, artemisinin-resistant). These cultures were obtained through BEI Resources, NIAID, NIH (MR4, ATCC®, Manassas, VA, USA), contributed by Andrew M. Talman, Robert E. Sinden, David Walliker, and Didier Ménard. The parasites were cultivated with 5% hematocrit at 37 °C and an atmosphere enriched with 5% of CO2 [54].
Then, to assess the antiplasmodial activity of the compounds, a screening assay was initially performed against the P. falciparum 3D7-GFP strain. For this, unsynchronized cultures were incubated in a 96-well flat-bottom plate at 1.2% hematocrit and 1.0% parasitemia, in the presence and absence of 1 μM and 10 μM of each compound, for 72 h at 37 °C and 5% CO2. […] Parasite growth was determined by flow cytometry (CytoFLEX, Beckman Coulter Life Sciences, Indianapolis, IN, USA) with a 96-well plate reader, using Fl-1 with an excitation wavelength of 488 nm for GFP detection. The flow cytometry data were analyzed with FlowJo v10 software (FlowJo LLC, Ashland, OR, USA) to calculate the percentage inhibition of compounds.

The subject of the next data set is erythrocytes. Also on record: method as in PMID 40572185. Particulars: no cytotoxicity against erythrocytes up to this concentration; cited from earlier work.
For data set [1], the system named is P. falciparum 3D7-GFP (chloroquine-sensitive). Kind of data set: IC50 determination against asexual blood stages, flow cytometry (GFP). The conditions noted are these: Plasmodium falciparum, 3D7, 72 h, read-out: IC50 (μM) 3D7-GFP. The format is cell-based. Here is the method:
as §1, with “In parallel, the parasite cultures used in the in vitro assays include the following P. falciparum strains: 3D7-GFP (MRA-1029, MR4, ATCC®, Manassas, VA, USA, chloroquine-sensitive, expressing Green Fluorescent Protein), Dd2 (MRA-150, ATCC®, Manassas, Virgínia, chloroquine-resistant), and IPC5202 (MRA-1240, ATCC®, Manassas, VA, USA, artemisinin-resistant).” left out
(§2) In order to accomplish this, unsynchronized cultures of 3D7-GFP, Dd2, and MRA-1240 were incubated at 1.2% hematocrit and 1.0% parasitemia with serial three-fold dilutions of the compounds, ranging from 10,000 nM to 0.17 nM, in 96-well flat-bottom plates for 72 h at 37 °C and 5% CO2. Parasite growth was quantified by flow cytometry (CytoFLEX, Beckman Coulter Life Sciences, Indianapolis, IN, USA) using GFP detection in a 96-well plate reader (Fl-1 channel) for the 3D7-GFP strain. The others (Dd2 and MRA-1240) were stained with SYBR Green I (20×), which is also detected at 488 nm. Data analysis was performed with FlowJo v10 software (FlowJo LLC, Ashland, OR, USA), and the half-maximal inhibitory concentrations (IC50) were calculated using GraphPad Prism 5 (trial version), with mean IC50 values obtained from at least two independent experiments, each conducted in triplicate.
(§3) All statistical analyses and graphical representations were performed using the GraphPad Prism 8.0 software package. Dose–response curves were generated by fitting the data to a nonlinear regression model [log(inhibitor) vs. response—variable slope]. […] The IC50 values were obtained from the fitted curves. Each experiment was carried out in triplicate and repeated independently, and results were expressed as mean ± standard deviation.
Background: Flow cytometry measures light scatter and fluorescence of single cells or particles in a stream.

Data set [2] has as its system P. falciparum MRA-1240 (artemisinin-resistant). The data set is described as follows: microbe, parasite or virus in culture. Particulars: Plasmodium falciparum, 72 h, read-out: IC50 (μM) MRA-1240. The format is cell-based. How it is done:
as §1, with “In parallel, the parasite cultures used in the in vitro assays include the following P. falciparum strains: 3D7-GFP (MRA-1029, MR4, ATCC®, Manassas, VA, USA, chloroquine-sensitive, expressing Green Fluorescent Protein), Dd2 (MRA-150, ATCC®, Manassas, Virgínia, chloroquine-resistant), and IPC5202 (MRA-1240, ATCC®, Manassas, VA, USA, artemisinin-resistant).” left out
as §2, §3

Data set [3] concerns P. falciparum Dd2 (chloroquine-resistant). The data set is described as follows: microbe, parasite or virus in culture. The format is cell-based. Particulars: Plasmodium falciparum, DD2, 72 h, read-out: IC50 (μM) Dd2. How it is done:
as §1, with “In parallel, the parasite cultures used in the in vitro assays include the following P. falciparum strains: 3D7-GFP (MRA-1029, MR4, ATCC®, Manassas, VA, USA, chloroquine-sensitive, expressing Green Fluorescent Protein), Dd2 (MRA-150, ATCC®, Manassas, Virgínia, chloroquine-resistant), and IPC5202 (MRA-1240, ATCC®, Manassas, VA, USA, artemisinin-resistant).” left out
as §2, §3

The subject of data set [4] is monkey kidney cells (Vero E6). The data set is described as follows: Cytotoxicity, MTT assay. The format is cell-based. Particulars: for IC50: Primates, read-out: IC50 (μM) Vero E6. How it is done: In the following stages, to assess the selectivity of compounds against P. falciparum over mammalian cells, the cytotoxicity against monkey kidney cells (Vero E6) was determined through MTT assay after 72h of treatment. Also, the selectivity index (SI) of compounds was calculated by the ratio between a compound’s cytotoxicity against Vero E6 cells and its antiplasmodial activity (SI = Vero E6 IC50/P. falciparum IC50).
For this, monkey kidney cells (Vero E6) were seeded at a density of 5 × 10^3 cells/mL in 96-well plates and allowed to adhere for 6 h. Vero E6 cell line was obtained from the Cell Bank of Rio de Janeiro and cultured in DMEM media (Dulbecco’s Modified Eagle Medium) plus 10% inactivated fetal bovine serum (FBS) and 1% penicillin–streptomycin. Treatments were performed by adding 100 μL of medium solutions with test drugs, resulting in concentrations ranging from 12.5 to 100 µM (DMSO 1%, v/v). After 72 h of incubation at 37 °C and under 5% of CO2, the cultures were incubated with MTT at 0.5 mg/mL for 2 h. After this, the formazan crystals were dried in room temperature and dissolved in DMSO. Cell viability was determined by measuring the absorbance at 570 nm (Absorbance microplate reader EL800, BioTek, Winooski, VT, USA), and control wells containing DMSO at 1% were considered as 100% cell viability.
For orientation: Tetrazolium dyes change colour on reduction, which living cells bring about.

For a further data set, the system named is P. falciparum 3D7. Particulars: read-out: potency against P. falciparum 3D7; cited from earlier work.
For another data set, the system named is mice. Also on record: method as in PMID 31861795. Particulars: acute toxicity, OECD guidelines; cited from earlier work.
The test system of a further data set is P. falciparum W2. More on the design: method as in PMID 30366283. Particulars: read-out: IC50 against P. falciparum W2; cited from earlier work.
Where [5] appears, read: Vero C1008, 72 h, MTT, 12.5 to 100 µM.

A word on the inhibition: it is the change of the read-out against control, counted positive when it falls. Consider `N#CC1=CC2(c3ccccc3Nc3ccccc32)N(/N=C/c2ccc(Cl)cc2)C1=O` [AMTAC-06], for which the inhibition at 10 µM with P. falciparum 3D7-GFP (3D7, 72 h) was determined as 62.4 ± 8.9%.
Regarding `COc1ccc(/C=N/N2C(=O)C(C#N)=CC23c2ccccc2Nc2ccccc23)cc1` [AMTAC-02], the “half-maximal hemolytic concentration (HC50)” value in the data set on erythrocytes is above 400 µM. Besides, the IC50 in [1] was 3.19 ± 0.49 µM; in data set [2], 4.01 ± 0.17 µM; in [3] it was 3.12 ± 0.34 µM; in [4] (setting [5]), above 100 µM.
As for `COc1cc(/C=N/N2C(=O)C(C#N)=CC23c2ccccc2Nc2ccccc23)cc(OC)c1O` [AMTAC-24, (E)-1′-((4-hydroxy-3,5-dimethoxybenzylidene)amino)-5′-oxo-1′,5′-dihydro-10H-spiro[acridine-9,2′-pyrrole]-4′-carbonitrile], the inhibition at 10 µM with P. falciparum 3D7-GFP (3D7, 72 h) turned out to be 66.8 ± 10.8%.
On to `N#CC1=CC2(c3ccccc3Nc3ccccc32)N(/N=C/c2ccnc3ccccc23)C1=O` [AMTAC-21, (E)-5′-oxo-1′-((quinolin-4-ylmethylene)amino)-1′,5′-dihydro-10H-spiro[acridine-9,2′-pyrrole]-4′-carbonitrile], for which the IC50 is 3.78 ± 0.18 µM in data set [1], 4.07 ± 0.27 µM in data set [2], 3.99 ± 0.23 µM in data set [3] and above 100 µM in data set [4] (setting [5]).
With `CC(=O)N(O)CCCCCNC(=O)CCC(=O)N(O)CCCCCNC(=O)CCC(=O)N(O)CCCCCN` [deferoxamine], the IC50 with P. falciparum 3D7 is 27.6 µM.
Take `N#CCC(=O)N/N=C/c1ccnc2ccccc12` [JR-18]: the inhibition at 10 µM in the data set with P. falciparum 3D7-GFP (3D7, 72 h) was determined as 14.7 ± 7.2%.
For `COc1cc(/C=N/N2C(=O)C(C#N)=CC23c2ccccc2Nc2ccccc23)cc(OC)c1OC` [AMTAC-17], the IC50 in data set [1] was 3.28 ± 0.49 µM; in [2], 4.09 ± 0.05 µM; in data set [3], 3.29 ± 0.38 µM; in [4] (setting [5]) it was above 100 µM. Also, in the data set with mice, the “estimated Median Lethal Dose (LD50)” value is on record as “greater than 5000 mg/kg”.
As to `N#CC1=CC2(c3ccccc3Nc3ccccc32)N(/N=C/c2ccccc2)C1=O` [AMTAC-01], in the data set with erythrocytes, the “half-maximal hemolytic concentration (HC50)” value is above 400 µM. Further, the IC50 in [1] is 2.11 ± 0.6 µM; in [2], 1.66 ± 0.08 µM; in [3], 1.37 ± 0.46 µM; in data set [4] (setting [5]), above 100 µM.
Consider `CCN(CC)CCCC(C)Nc1ccnc2cc(Cl)ccc12` (stereo not drawn) [CQ, chloroquine, reference compound], for which the IC50 was 0.02 ± 0.01 µM in data set [1]; 0.19 ± 0.07 µM in data set [2]; 0.26 ± 0.09 µM in [3]; above 100 µM in data set [4] (Vero C1008, 72 h). Also, the inhibition at 10 µM in the data set with P. falciparum 3D7-GFP (72 h) worked out at 94.34 ± 0.54%.
Take `COc1cc(/C=N/NC(=O)CC#N)cc(OC)c1O` [JR-28, (E)-2-cyano-N’-(4-hydroxy-3,5-dimethoxybenzylidene)acetohydrazide]: the inhibition at 10 µM with P. falciparum 3D7-GFP (3D7, 72 h) came out at 5.5 ± 11.5%.
Same read-out and setting: the result for `COc1ccc(/C=N/NC(=O)CC#N)cc1` [JR-11, (E)-2-cyano-N’-(4-methoxybenzylidene)acetohydrazide] reads 13.4 ± 1.4%.
Regarding `COc1cc(NC(C)CCCN)c2ncccc2c1` (stereo not drawn) [primaquine], the IC50 in the data set on P. falciparum 3D7 was 9.4 µM; in the data set on P. falciparum W2 it was 1.7 µM.
With `N#CCC(=O)N/N=C/c1ccccc1` [JR-09], in the data set on P. falciparum 3D7-GFP (3D7, 72 h), the inhibition at 10 µM is 14.8 ± 0.4%.
With `COc1cc(C)c2c(Oc3cccc(C(F)(F)F)c3)c(OC)cc(NC(C)CCCN)c2n1` (stereo not drawn) [tafenoquine], the IC50 in the data set on P. falciparum 3D7 is 1.7 µM.
Turning to `N#CC1=CC2(c3ccccc3Nc3ccccc32)N(/N=C/c2c[nH]c3ccccc23)C1=O` [AMTAC-22, (E)-1′-(((1H-indol-3-yl)methylene)amino)-5′-oxo-1′,5′-dihydro-10H-spiro[acridine-9,2′-pyrrole]-4′-carbonitrile], the IC50 in [1] was 3.01 ± 0.52 µM; in data set [2], 2.88 ± 0.3 µM; in data set [3], 2.34 ± 0.11 µM; in data set [4] (setting [5]), above 100 µM. The “reduction in cell viability” value in data set [4] (at all concentrations evaluated (12.5–100 μM), 72 h) is on record as 15–20%.
Regarding `N#CCC(=O)N/N=C/c1ccc(Cl)cc1` [JR-06, (E)-N’-(4-chlorobenzylidene)-2-cyanoacetohydrazide], the inhibition at 10 µM with P. falciparum 3D7-GFP (3D7, 72 h) came out at 12.4 ± 1%.
Still for that read-out and setting: the same measure for `COc1cc(/C=N/NC(=O)CC#N)cc(OC)c1OC` [JR-10, (E)-2-cyano-N’-(3,4,5-trimethoxybenzylidene)acetohydrazide]: 12.6 ± 1.4%; for `N#CCC(=O)N/N=C/c1c[nH]c2ccccc12` [JR-19]: 16.8 ± 5%.
